Measurements as given in PubChem BioAssay (NCI).
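Assay format: 96-well plates, 48-hour exposure. TGI is the concentration that stops growth completely.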

Experiments:
Test in all cases: NCI-60 cell line screen, 48 h
BT-549 breast = system: BT-549 breast
HCC-2998 colon = system: HCC-2998 colon
IGROV1 ovarian = system: IGROV1 ovarian
M14 melanoma = system: M14 melanoma
MOLT-4 leukemia = system: MOLT-4 leukemia
RXF 393 renal = system: RXF 393 renal
SF-268 CNS = system: SF-268 CNS
SF-539 CNS = system: SF-539 CNS
SNB-75 CNS = system: SNB-75 CNS
U251 CNS = system: U251 CNS
MDA-N = system: MDA-N

Row | Compound | TGI (BT-549 breast) [µM] | TGI (HCC-2998 colon) [µM] | TGI (IGROV1 ovarian) [µM] | TGI (M14 melanoma) [µM] | TGI (MOLT-4 leukemia) [µM] | TGI (RXF 393 renal) [µM] | TGI (SF-268 CNS) [µM] | TGI (SF-539 CNS) [µM] | TGI (SNB-75 CNS) [µM] | TGI (U251 CNS) [µM] | TGI (MDA-N) [µM]
1 | CCOC(=O)c1ccc(Nc2c3c(nc4ccccc24)CCCC3)cc1 | > 100 | > 100 | > 100 | > 100 | > 100 | > 100 | > 100 | > 100 | > 54.8 | > 100 | 
2 | CC1(C)N=C(C(N)=O)c2ncn(N)c2N1 |  | > 100 | > 100 | > 100 |  | > 100 | > 100 | > 100 | > 100 | > 100 | > 100
3 | C[n+]1c(-c2ccc(/C=N/NC(=N)N/N=C/c3ccc(-c4cn5cc(Cl)ccc5[n+]4C)cc3)cc2)cn2cc(Cl)ccc21 |  | > 100 | > 100 | > 100 | > 100 |  | > 100 | > 100 | > 100 | > 100 | 
4 | NC(N)=N/N=C/c1nc2n(c1[N+](=O)[O-])CCS2 | > 100 |  | > 100 | > 100 | 63.7 | 65.3 | > 100 | > 100 | 60.2 | 89.3 | > 100
5 | O=C1c2ccc(O)cc2C(=O)c2ccc(O)cc21 |  | > 100 | > 100 | > 100 | > 100 | 91.8 | > 100 | > 100 | 81.5 | > 100 | 
6 | COc1cc2c(c(OC)c1OC)-c1ccc(SC)c(=O)cc1[C@@H](NCc1ccc(C#N)cc1)CC2 |  | 0.00662 | > 100 |  | > 100 | 0.00508 |  | 0.00582 | > 100 | 0.00787 | 
7 | COC(=O)/C(=C\Nc1cccc(C)n1)S(=O)(=O)c1ccc(C)cc1 |  | > 100 | > 100 | > 100 | 70.4 | > 100 | > 100 | > 100 | > 100 | > 100 | > 100
8 | O=C(c1ccccc1)N1CCN(C(=S)N(C(=O)c2ccccc2)c2ccccc2)C1=S | 13.7 | 14.5 | 12.6 | 9.51 |  |  | 14.7 | 7.07 | 6.56 | 22.6 | 17.1
9 | CC(C)(C)N=NNc1cn(C2OC(CO)C(O)C2O)c(=O)[nH]c1=O (stereo not given) |  | > 100 | > 100 | > 100 | > 100 | > 100 | > 100 |  | > 100 |  | 
10 | COc1cc2c(cc1OC)C(C(CO)CO)N(CC(O)CCl)CC2 (stereo not given) |  | > 100 | > 100 | > 100 | > 100 |  | > 100 | > 100 | > 100 | > 100 | 
11 | Cc1c(Cl)c2ccccc2n1S(=O)(=O)c1ccccc1 |  | > 100 | > 100 | > 100 | > 100 |  | > 100 | > 100 | 58 | > 100 | 
12 | O=C(/C=C/c1ccc(O)c(O)c1)OCCCc1ccccc1 |  | 39.5 | 12.1 | 22.6 | 36.4 | 25.5 | 24 | 5.81 |  | 23.4 | 31.3
13 | O=C(c1ccco1)N1CCCN(C(=O)c2ccco2)C1=S | > 100 |  | > 100 | > 100 | > 100 | > 100 | > 100 | > 100 |  | > 100 | > 100
14 | CCc1cc(Cc2cc(Cl)c(NC(=O)C(=O)C3NC(=O)NC3=O)c(CC)c2)cc(Cl)c1NC(=O)C(=O)C1NC(=O)NC1=O (stereo not given) |  | > 100 | > 100 | > 100 | > 100 | 59.9 | > 100 | > 100 | 90.7 | 40.1 | 
15 | Cc1ccc(S(=O)(=O)N/N=C(\c2nc3ccc(Cl)cc3[nH]c2=O)C(O)c2cccc([N+](=O)[O-])c2)cc1 (stereo not given) |  | > 100 | > 100 | > 100 | > 100 | > 100 | > 100 | > 100 | > 100 | > 100 | 
16 | C[C@]12CCC(=O)C=C1CC[C@@H]1[C@@H]2[C@@H](O)C[C@@]2(C)[C@H]1CC[C@]2(O)C(=O)COC(=O)COCC(=O)O |  | > 100 | > 100 | > 100 | > 100 |  | > 100 | > 100 | > 100 | > 100 | 
17 | O=C(c1ccc(Cl)cc1)c1ccc(OCCCOc2ccc(C(=O)c3ccc(Cl)cc3)cc2)cc1 |  | > 100 | > 100 | > 100 | > 100 | > 100 | > 100 | > 100 | > 100 | > 100 | 
18 | N/C(=N\S(=O)(=O)c1ccc(S(=O)(=O)c2ccccc2)s1)Nc1ccc(Cl)cc1 | 46 |  | 31.7 | 37.3 | 59.6 | > 100 | 47.7 | 84.3 | > 100 | 27.8 | 39.1
19 | CCC(CON(C)c1ccccc1)(SC)SC | > 100 | > 100 | > 100 | > 100 | > 100 |  | > 100 | > 100 | > 100 | > 100 | > 100
20 | C1CCC2(CC1)O[C@@H]1[C@@H](O2)[C@@H](O[C@H]2O[C@@H]3COC4(CCCCC4)O[C@H]3[C@@H]3OC4(CCCCC4)O[C@@H]23)O[C@@H]2COC3(CCCCC3)O[C@@H]12 | > 100 |  | > 100 | > 100 | > 100 | > 100 | > 100 | > 100 | > 100 | > 100 | > 100
21 | O=c1[nH]c(=O)n(C2OC(COP(=O)(O)OP(=O)(O)OC3OC(CO)C(O)C(O)C3O)C(O)C2O)cc1F (stereo not given) |  | > 100 | 6.26 | > 50.1 | > 100 | 0.529 | > 100 | 1.49 | > 100 | > 100 | 
22 | O=C1Nc2ccccc2C12CCNC2Cc1ccccc1 (stereo not given) |  | > 100 | > 100 | > 100 | > 100 |  | > 100 | > 100 | > 100 | > 100 | 
